{"source": "patent US8299107B2", "about": "“Triazole compounds that modulate HSP90 activity” (Synta Pharmaceuticals Corporation, priority 2007, dated 2012)", "tested_on": "Her2", "test": "Degradation of Her2 in BT-474 cells, Western blot (Method 1)", "assay_type": "cell-based, human", "details": "0.5 μM, overnight, positive control", "experimental": "Human high-Her2 breast carcinoma BT474 (HTB-20), SK-BR-3 (HTB-30) and MCF-7 breast carcinoma (HTB-22) from American Type Culture Collection, VA, USA were grown in Dulbecco's modified Eagle's medium with 4 mM L-glutamine and antibiotics (100 IU/ml penicillin and 100 ug/ml streptomycine; GibcoBRL). To obtain exponential cell growth; cells were trypsinized, counted and seeded at a cell density of 0.5×10^6 cells/ml regularly, every 3 days. All experiments were performed on day 1 after cell passage.\nBT-474 cells are treated with 0.5 μM, 2 μM, or 5 μM of 17AAG (a positive control) or 0.5 μM, 2 μM, or 5 μM of a compound of the invention overnight in DMEM medium. After treatment, each cytoplasmic sample is prepared from 1×10^6 cells by incubation of cell lysis buffer (#9803, cell Signaling Technology) on ice for 10 minutes. The resulting supernatant used as the cytosol fractions is dissolved with sample buffer for SDS-PAGE and run on a SDS-PAGE gel, blotted onto a nitrocellulose membrane by using semi-dry transfer. Non-specific binding to nitrocellulose is blocked with 5% skim milk in TBS with 0.5% Tween at room temperature for 1 hour, then probed with anti-Her2/ErB2 mAb (rabbit IgG, #2242, Cell Signaling) and anti-Tubulin (T9026, Sigma) as housekeeping control protein. […]", "data": [{"smiles": "C=CCNC1=C2C[C@@H](C)C[C@H](OC)[C@H](O)[C@@H](C)/C=C(\\C)[C@H](OC(N)=O)[C@@H](OC)/C=C\\C=C(/C)C(=O)NC(=CC1=O)C2=O", "note": "[Compound 17AAG, 17-allylamino-17-demethoxygeldanamycin]", "values": [{"measurement": "degradation of Her2", "result": "partial degradation of Her2"}]}]}
